IC50 data for 27 compounds are collected here from patent publication US8883782B2, “Spiro-tetracyclic ring compounds as beta-secretase modulators and methods of use” (Amgen Inc., priority 2010, dated 2014).

The test system of test [1] is Aβ40 in conditioned medium of cells stably expressing Amyloid Precursor Protein (APP). Kind of test: In vitro BACE cell-based assay (Aβ40 in conditioned medium, sandwich ELISA). Particulars: read-out: HEK cell assay. The procedure, abridged:
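Conditioned medium from stably APP-expressing cells treated with compound dose series is assayed for Aβ40 by sandwich ELISA with time-resolved fluorescence detection. IC50 is calculated from percent inhibition of Aβ40 against compound concentration.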
In general terms: An ELISA detects its analyte on a solid surface through an enzyme-linked reagent.

The target of test [2] is Beta Secretase enzyme (BACE) (Homo sapiens, UniProt P56817). Kind of test: In vitro enzymatic BACE FRET (fluorescence resonance energy transfer) assay. It is filed as biochemical. Particulars: average IC50, enzyme assay; read-out: BACE 1 FRET assay. The procedure, abridged: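 Cleavage of a 50 nM fluorophore/quencher peptide FRET substrate by BACE for 1 h in 0.05 M acetate pH 4.2, 10% DMSO, 100 uM genapol. Reaction stopped with Tris to neutral pH before fluorescence reading.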
Chain of Beta Secretase enzyme (BACE) (P56817 46-501, species assumed): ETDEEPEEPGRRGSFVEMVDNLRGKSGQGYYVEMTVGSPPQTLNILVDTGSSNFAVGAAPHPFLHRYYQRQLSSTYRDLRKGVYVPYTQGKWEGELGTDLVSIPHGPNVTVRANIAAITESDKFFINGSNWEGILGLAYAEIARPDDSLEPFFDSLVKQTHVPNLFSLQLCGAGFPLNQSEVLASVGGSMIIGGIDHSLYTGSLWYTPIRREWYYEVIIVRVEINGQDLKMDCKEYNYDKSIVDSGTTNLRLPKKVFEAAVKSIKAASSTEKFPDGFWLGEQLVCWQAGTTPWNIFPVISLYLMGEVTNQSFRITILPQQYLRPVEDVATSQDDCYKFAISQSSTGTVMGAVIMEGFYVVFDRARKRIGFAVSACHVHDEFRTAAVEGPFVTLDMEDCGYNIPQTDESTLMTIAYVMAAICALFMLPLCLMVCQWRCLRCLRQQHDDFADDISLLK

[3] abbreviates: Homo sapiens, HEK293, average IC50, HEK cells.
Where [4] appears, read: Homo sapiens, HEK293, average IC50.

pIC50: −log10 of the molar value. Read-outs that look alike come from different tables or passages of the source.

Take `COc1ncc(-c2cc3c(cn2)Oc2ccc(-c4cccnc4F)cc2[C@@]32COC(N)=N2)cc1F` [Example 570, (5S)-3-(5-fluoro-6-methoxy-3-pyridinyl)-7-(2-fluoro-3-pyridinyl)spiro[chromeno[2,3-c]pyridine-5,4′-[1,3]oxazol]-2′-amine]: the pIC50 in test [1] (setting [3]) was 7.51; in test [2], 8.70.

As for `NC1=N[C@@]2(CO1)c1cc(OCc3ccccc3Br)ccc1Oc1ncc(-c3cccnc3)cc12` [Example 978, (5S)-7-((2-bromobenzyl)oxy)-3-(3-pyridinyl)spiro[chromeno[2,3-b]pyridine-5,4′-[1,3]oxazol]-2′-amine], the pIC50 in test [1] (setting [4]) is 6.48; in test [2], 7.29.

For `NC1=N[C@]2(CO1)c1cc(I)ccc1Oc1ncc(Br)cc12` [Example 1017, (5R)-3-bromo-7-iodospiro[chromeno[2,3-b]pyridine-5,4′-[1,3]oxazol]-2′-amine], the pIC50 in test [1] (setting [4]) is 6.05; in test [2], 4.56.

`NC1=N[C@@]2(CO1)c1cc(-c3cccnc3F)ccc1Oc1ncc(-c3cccnc3F)cc12` [Example 732, (5S)-3,7-bis(2-fluoro-3-pyridinyl)spiro[chromeno[2,3-b]pyridine-5,4′-[1,3]oxazol]-2′-amine]: the values for the pIC50 in test [1] (setting [4]) and in test [2] were 8.52 and 8.70, respectively.

For the compound `NC1=N[C@]2(CO1)c1cc(-c3cccnc3F)ccc1Oc1cc(OC(F)(F)F)c(Br)cc12` [Example 988, (4R)-2′-bromo-7′-(2-fluoro-3-pyridinyl)-3′-(trifluoromethoxy)spiro[1,3-oxazole-4,9′-xanthen]-2-amine], the values for the pIC50 in test [1] (setting [4]) and in test [2] were at most 5.00 and 4.40, respectively.

`NC1=N[C@@]2(CS1)c1cc(-c3cccnc3F)ccc1Oc1c(F)cc(N3CCOCC3)cc12` [Example 1069, (4S)-4′-fluoro-7′-(2-fluoro-3-pyridinyl)-2′-(4-morpholinyl)spiro[1,3-thiazole-4,9′-xanthen]-2-amine]: the pIC50 in test [1] (setting [4]) was 8.00; in test [2], 9.22.

`CC#Cc1cc(F)c2c(c1)[C@]1(COC(N)=N1)c1cc(-c3cccnc3F)ccc1O2` [Example 651, (4S)-4′-fluoro-7′-(2-fluoro-3-pyridinyl)-2′-(1-propyn-1-yl)spiro[1,3-oxazole-4,9′-xanthen]-2-amine]: the pIC50 was 7.43 in test [1] (setting [3]) and 8.72 in test [2].

Turning to `NC1=N[C@@]2(CO1)c1cc(-c3cccnc3F)ccc1Oc1c(F)cc(N3CC4(CCCOC4)C3)cc12` [Example 856, (4S)-4′-fluoro-7′-(2-fluoro-3-pyridinyl)-2′-(6-oxa-2-azaspiro[3.5]non-2-yl)spiro[1,3-oxazole-4,9′-xanthen]-2-amine], the pIC50 in test [1] (setting [3]) was 8.40; in test [2] it was 9.22.

Turning to `NC1=N[C@@]2(CO1)c1cc(-c3ccnc(F)c3)ccc1Oc1cnc(Cl)cc12` [Example 675, (5S)-3-chloro-7-(2-fluoro-4-pyridinyl)spiro[chromeno[2,3-c]pyridine-5,4′-[1,3]oxazol]-2′-amine], the pIC50 in test [1] (setting [3]) is 6.38; in test [2] it was 5.58.

Consider `CC#Cc1cncc(-c2ccc3c(c2)[C@@]2(COC(N)=N2)c2cc(-c4ncccn4)ncc2O3)c1` [Example 936, (5S)-7-(5-(1-propyn-1-yl)-3-pyridinyl)-3-(2-pyrimidinyl)spiro[chromeno[2,3-c]pyridine-5,4′-[1,3]oxazol]-2′-amine], for which the results for the pIC50 in test [1] (setting [3]) and in test [2] were 7.55 and 8.52, respectively.

With `NC1=N[C@@]2(CO1)c1cc(-c3c(F)ccnc3F)ccc1Oc1cnc([C@H]3CCCCO3)cc12` [Example 914, (5S)-7-(2,4-difluoro-3-pyridinyl)-3-((2R)-tetrahydro-2H-pyran-2-yl)spiro[chromeno[2,3-c]pyridine-5,4′-[1,3]oxazol]-2′-amine], the pIC50 in test [1] (average IC50, HEK cells) was 6.99; in test [2], 7.87.

For the compound `CC1(C)C=C(c2cnc3c(c2)[C@]2(CSC(N)=N2)c2cc(-c4ccc(F)c(C#N)c4)ccc2O3)CCO1` [Example 784, 5-((5S)-2′-amino-3-(6,6-dimethyl-3,6-dihydro-2H-pyran-4-yl)spiro[chromeno[2,3-b]pyridine-5,4′-[1,3]thiazol]-7-yl)-2-fluorobenzonitrile], the pIC50 was 7.82 in test [1] (setting [4]) and 8.85 in test [2].

For the compound `NC1=N[C@@]2(CO1)c1cc(-c3cncnc3)ccc1Oc1cnc(-c3cc(F)nc(F)c3)cc12` [Example 542, (5S)-3-(2,6-difluoro-4-pyridinyl)-7-(5-pyrimidinyl)spiro[chromeno[2,3-c]pyridine-5,4′-[1,3]oxazol]-2′-amine], the results for the pIC50 in test [1] (setting [3]) and in test [2] were 7.73 and 8.96, respectively.

As to `NC1=N[C@@]2(CO1)c1cc(-c3cccnc3F)c(F)cc1Oc1c(F)cc(C3=CCCOC3)cc12` [Example 865, (4S)-7′-(5,6-dihydro-2H-pyran-3-yl)-3′,5′-difluoro-2′-(2-fluoro-3-pyridinyl)spiro[1,3-oxazole-4,9′-xanthen]-2-amine], the results for the pIC50 in test [1] (setting [3]) and in test [2] were 8.30 and 9.52, respectively.

In the case of `NC1=N[C@]2(CO1)c1cc(-c3cccnc3F)ccc1Oc1nc(F)c(N3CCOCC3)cc12` [Example 904, (5R)-2-fluoro-7-(2-fluoro-3-pyridinyl)-3-(4-morpholinyl)spiro[chromeno[2,3-b]pyridine-5,4′-[1,3]oxazol]-2′-amine], the pIC50 was at most 5.00 in test [1] (setting [3]) and 6.57 in test [2].

On to `Cc1ncccc1-c1ccc2c(c1)[C@@]1(COC(N)=N1)c1cc(C3=CCOCC3)ncc1O2` [Example 247, (5S)-3-(3,6-dihydro-2H-pyran-4-yl)-7-(2-methyl-3-pyridinyl)spiro[chromeno[2,3-c]pyridine-5,4′-[1,3]oxazol]-2′-amine], for which the pIC50 in test [1] (setting [4]) is 7.34; in test [2] it was 7.35.

Take `CC1(C#Cc2ccc3c(c2)[C@@]2(COC(N)=N2)c2cc(C4=CCOCC4)cnc2O3)COC1` [Example 462, (5S)-3-(3,6-dihydro-2H-pyran-4-yl)-7-((3-methyl-3-oxetanyl)ethynyl)spiro[chromeno[2,3-b]pyridine-5,4′-[1,3]oxazol]-2′-amine]: the pIC50 in test [1] (setting [3]) is 7.72; in test [2], 8.23.

As to `Cc1cc(-c2cc3c(c(F)n2)Oc2ccc(-c4cccnc4F)cc2[C@@]32COC(N)=N2)on1` [Example 851, (5S)-1-fluoro-7-(2-fluoro-3-pyridinyl)-3-(3-methyl-5-isoxazolyl)spiro[chromeno[2,3-c]pyridine-5,4′-[1,3]oxazol]-2′-amine], the pIC50 was 8.10 in test [1] (setting [3]) and 9.10 in test [2].

Regarding `CC(C)(O)C#Cc1cncc(-c2ccc3c(c2)[C@@]2(COC(N)=N2)c2cc(C4=CCCOC4)ncc2O3)c1` [Example 819, 4-(5-((5S)-2′-amino-3-(5,6-dihydro-2H-pyran-3-yl)spiro[chromeno[2,3-c]pyridine-5,4′-[1,3]oxazol]-7-yl)-3-pyridinyl)-2-methyl-3-butyn-2-ol], the pIC50 in test [1] (setting [4]) is 6.62; in test [2], 8.28.

With `NC1=N[C@@]2(CS1)c1cc(-c3cnccc3F)ccc1Oc1ncc(-c3cccnc3)cc12` [Example 769, (5S)-7-(4-fluoro-3-pyridinyl)-3-(3-pyridinyl)spiro[chromeno[2,3-b]pyridine-5,4′-[1,3]thiazol]-2′-amine], the pIC50 in test [1] (setting [4]) is 7.36; in test [2], 8.64.

Regarding `NC1=N[C@@]2(CS1)c1cc(-c3ccc(F)nc3)ccc1Oc1ncc(Br)cc12` [Example 963, (5S)-3-bromo-7-(6-fluoro-3-pyridinyl)spiro[chromeno[2,3-b]pyridine-5,4′-[1,3]thiazol]-2′-amine], the pIC50 in test [1] (setting [3]) was 6.08; in test [2], 7.36.

Turning to `N#Cc1cccc(-c2ccc3c(c2)[C@@]2(COC(N)=N2)c2cc(N4CCC(F)(F)CC4)ncc2O3)c1` [Example 424, 3-((5S)-2′-amino-3-(4,4-difluoro-1-piperidinyl)spiro[chromeno[2,3-c]pyridine-5,4′-[1,3]oxazol]-7-yl)benzonitrile], the figures for the pIC50 in test [1] (setting [3]) and in test [2] were 7.74 and 8.82, respectively.

For the compound `COc1cncc(-c2ccc3c(c2)[C@@]2(COC(N)=N2)c2cc(C4=CCOCC4)ccc2O3)c1` [Example 194, (4R)-2′-(3,6-dihydro-2H-pyran-4-yl)-7′-(5-methoxy-3-pyridinyl)spiro[1,3-oxazole-4,9′-xanthen]-2-amine], the pIC50 in test [1] (setting [4]) is 7.56; in test [2], 8.10.

As to `CC1(COc2cc3c(cc2F)Oc2ccc(-c4ccnc(Cl)c4)cc2[C@@]32COC(N)=N2)COC1` [Example 325, (4S)-7′-(2-chloro-4-pyridinyl)-3′-fluoro-2′-((3-methyl-3-oxetanyl)methoxy)spiro[1,3-oxazole-4,9′-xanthen]-2-amine], the results for the pIC50 in test [1] (setting [4]) and in test [2] were 6.59 and 7.30, respectively.

As for `CC(C)(C)COc1cc2c(cn1)Oc1ccc(-c3cccnc3F)cc1[C@@]21COC(N)=N1` [Example 609, (5S)-3-(2,2-dimethylpropoxy)-7-(2-fluoro-3-pyridinyl)spiro[chromeno[2,3-c]pyridine-5,4′-[1,3]oxazol]-2′-amine], the results for the pIC50 in test [1] (setting [3]) and in test [2] were 7.82 and 9.40, respectively.

Regarding `CC1(C#Cc2cc3c(cn2)Oc2ccc(-c4cccc(C#N)c4)cc2[C@@]32COC(N)=N2)COC1` [Example 164, 3-((5S)-2′-amino-3-((3-methyl-3-oxetanyl)ethynyl)spiro[chromeno[2,3-c]pyridine-5,4′-[1,3]oxazol]-7-yl)benzonitrile], the pIC50 in test [1] (setting [4]) is 7.72; in test [2], 8.64.

Consider `Cc1ccc(Oc2ccc3c(c2)[C@@]2(COC(N)=N2)c2cc(C4=CCOCC4)cc(F)c2O3)nc1` [Example 1064, (4S)-2′-(3,6-dihydro-2H-pyran-4-yl)-4′-fluoro-7′-((5-methyl-2-pyridinyl)oxy)spiro[1,3-oxazole-4,9′-xanthen]-2-amine], for which the values for the pIC50 in test [1] (setting [4]) and in test [2] were 6.35 and 7.68, respectively.
